Data reported in patent US5837687A, “Azapeptide derivative” (Fujirebio Inc., priority 1994, dated 1998).
Read-outs that look alike come from different tables or passages of the source. Peptide text beside a SMILES is read from it. * marks the point of attachment. Boc = CC(C)(C)OC(=O)*; OBn = c1ccc(CO*)cc1

Target: T1, NKA receptor (Mesocricetus auratus, UniProt P51144)
T1 construct: from tissue; host or cells: hamster respiratory tract (trachea) ring specimens
T1 sequence (P51144 1-384): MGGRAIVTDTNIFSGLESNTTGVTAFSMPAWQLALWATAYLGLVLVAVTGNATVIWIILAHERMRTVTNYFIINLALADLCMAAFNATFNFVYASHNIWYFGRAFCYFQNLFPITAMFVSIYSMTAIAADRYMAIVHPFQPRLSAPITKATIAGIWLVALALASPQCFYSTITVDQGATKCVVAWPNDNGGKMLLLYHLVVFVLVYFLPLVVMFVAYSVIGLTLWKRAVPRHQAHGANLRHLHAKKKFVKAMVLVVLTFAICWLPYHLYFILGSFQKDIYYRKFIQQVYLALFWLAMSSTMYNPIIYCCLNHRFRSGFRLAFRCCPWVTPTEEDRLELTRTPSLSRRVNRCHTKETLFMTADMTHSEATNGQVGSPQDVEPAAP
Assay: Activity to constriction of hamster respiratory tracts caused by NKA (isolated tissue, tension)
Assay type: cell-based
Experimental: The activity of the azapeptide derivative of the present invention to a NKA receptor was evaluated by the following method.
(1) Activity to constriction of hamster respiratory tracts caused by NKA
Respiratory tracts were taken out from male Syrian strain Golden hamsters having a body weight of 100 to 180 g, and cyclic specimens having a width of 3 to 6 mm were prepared. The specimens were incubated at 37° C. and suspended by loading a static tension of 0.5 g, in a reaction tank charged with 15 ml of a Tyrode solution (137 mM of NaCl, 2.7 mM of KCl, 1.8 mM of CaCl2, 1.02 mM of MgCl2, 11.9 mM of NaHCO3, 0.42 mM of NaH2 PO4 and 5.5 mM of glucose) in which 95% O2 -5% CO2 had been passed.
The compound to be tested was charged into the reaction tank and maintained for 5 minutes. 1×10^-7 M of NKA was charged into the reaction tank, and tension caused thereby was recorded. The examined effect of the tested compound as an antagonist was shown by IC50.

IC50 (mole concentration giving 50% control of tension caused by 1×10^-7 M NKA, compound maintained 5 minutes, hamster respiratory tract specimens, read-out: IC50) [nM] | SMILES | IC50 [nM]
– | CC(C)(C)OC(=O)N[C@@H](CCC(N)=O)C(=O)N[C@@H](Cc1c[nH]c2ccccc12)C(=O)NN(Cc1ccccc1)C(=O)NCCOCc1ccccc1 [Example 2 (2), Boc-Gln-Trp-AzPhe-NH(CH2)2 OCH2 Ph] | 0.66
– | CC(C)(C)OC(=O)N[C@@H](CC(=O)O)C(=O)N[C@@H](Cc1c[nH]c2ccccc12)C(=O)NN(Cc1ccccc1)C(=O)NCCOCc1ccccc1 [Example 16 (2), Boc-Asp-Trp-AzPhe-NH(CH2)2 OCH2 Ph] | 13
– | CC(C)CCNC(=O)N[C@@H](CCC(N)=O)C(=O)N[C@@H](Cc1c[nH]c2ccccc12)C(=O)NN(Cc1ccccc1)C(=O)NCCOCc1ccccc1 [Example 7, i-Pent-NHCO-Gln-Trp-AzPhe-NH(CH2)2OCH2 Ph] | 0.5
– | CC(C)(C)OC(=O)N[C@@H](CCCNC(=N)N[N+](=O)[O-])C(=O)N[C@@H](Cc1c[nH]c2ccccc12)C(=O)NN(Cc1ccccc1)C(=O)NCCOCc1ccccc1 [Example 15, Boc-Arg(NO2)-Trp-AzPhe-NH(CH2)2 OCH2 Ph] | 35
– | CC(C)(C)OC(=O)N[C@@H](CC(N)=O)C(=O)N[C@@H](Cc1c[nH]c2ccccc12)C(=O)NN(Cc1ccccc1)C(=O)NCCOCc1ccccc1 [Example 10, Boc-Asn-Trp-AzPhe-NH(CH2)2 OCH2 Ph] | 6.8
– | CC(C)c1ccc(CN(NC(=O)[C@H](Cc2c[nH]c3ccccc23)NC(=O)[C@H](CCC(N)=O)NC(=O)NC(C)(C)C)C(=O)NCCOCc2ccccc2)cc1 [Example 36 (3), t-Bu-NHCO-Gln-Trp-AzPhe(4-iPr)-NH(CH2)2 OCH2 Ph] | 69
– | CC(C)(C)NC(=O)N[C@@H](CCC(N)=O)C(=O)N[C@@H](Cc1c[nH]c2ccccc12)C(=O)NN(Cc1ccccc1)C(=O)NCCOCc1ccc2ccccc2c1 [Example 41 (3), t-Bu-NHCO-Gln-Trp-AzPhe-NH(CH2)2 O-(2-naphthylmethyl)] | 20
330 | CC(C)(C)OC(=O)N[C@@H](CC(=O)OCc1ccccc1)C(=O)N[C@@H](CCC(N)=O)C(=O)N[C@@H](Cc1c[nH]c2ccccc12)C(=O)N[C@@H](Cc1ccccc1)C(N)=O [Reference example 14, Boc-Asp(OBzl)-Gln-Trp-Phe-NH2, reference compound] (Boc-D(OBn)QWF-NH2) | –
– | CC(C)(C)NC(=O)N[C@@H](CCC(N)=O)C(=O)N[C@@H](Cc1c[nH]c2ccccc12)C(=O)NN(Cc1ccccc1C(F)(F)F)C(=O)NCCOCc1ccccc1 [Example 40 (3), t-Bu-NHCO-Gln-Trp-AzPhe(2-CF3)-NH(CH2)2 OCH2 Ph] | 0.31
– | CC(C)(C)OC(=O)N[C@@H](CC(=O)OCc1ccccc1)C(=O)N[C@@H](CCC(N)=O)C(=O)N[C@@H](Cc1c[nH]c2ccccc12)C(=O)NN(Cc1ccccc1)C(=O)NCc1ccc(F)cc1 [Example 17 (3), Boc-Asp(OBzl)-Gln-Trp-AzPhe-NHCH2 Ph(4-F)] | 4.2
– | CC(C)(C)OC(=O)N[C@@H](CC(=O)OCc1ccccc1)C(=O)N[C@@H](CCC(N)=O)C(=O)N[C@@H](Cc1c[nH]c2ccccc12)C(=O)NN(Cc1ccccc1)C(=O)NCCO [Example 24 (2), Boc-Asp(OBzl)-Gln-Trp-AzPhe-NH(CH2)2 OH] | 46
– | COc1ccc(CNC(=O)N(Cc2ccc(OCc3ccccc3)cc2)NC(=O)[C@H](Cc2c[nH]c3ccccc23)NC(=O)[C@H](CCC(N)=O)NC(=O)OC(C)(C)C)c(OC)c1 [Example 32 (2), Boc-Gln-Trp-AzTyr(CH2 Ph)-NHDmob] | 7700
– | CC(C)CCC(=O)N[C@@H](CCC(N)=O)C(=O)N[C@@H](Cc1c[nH]c2ccccc12)C(=O)NN(Cc1ccccc1)C(=O)NCCOCc1ccccc1 [Example 3, i-Pent-CO-Gln-Trp-AzPhe-NH(CH2)2 OCH2 Ph] | 0.6
– | CC(C)(C)NC(=O)N[C@@H](CCC(N)=O)C(=O)N[C@@H](Cc1c[nH]c2ccccc12)C(=O)NN(Cc1ccc(F)cc1)C(=O)NCCOCc1ccccc1 [Example 31, t-Bu-NHCO-Gln-Trp-AzPhe(4-F)-NH(CH2)2 OCH2 Ph] | 0.42
